Where two headings read alike, the source gives them in different places. Peptide text beside a SMILES is read from it. * marks the point of attachment. MeOSuc = COC(=O)CCC(=O)*; CH2Cl = ClC*
What was measured:
Purified PMPMEase = biological target: T1, Purified PMPMEase (Sus scrofa, UniProt Q29550); format: biochemical, porcine
T1 construct: from tissue; host or cells: porcine liver supernatant, purified by column chromatography
T1 sequence (Q29550 19-566): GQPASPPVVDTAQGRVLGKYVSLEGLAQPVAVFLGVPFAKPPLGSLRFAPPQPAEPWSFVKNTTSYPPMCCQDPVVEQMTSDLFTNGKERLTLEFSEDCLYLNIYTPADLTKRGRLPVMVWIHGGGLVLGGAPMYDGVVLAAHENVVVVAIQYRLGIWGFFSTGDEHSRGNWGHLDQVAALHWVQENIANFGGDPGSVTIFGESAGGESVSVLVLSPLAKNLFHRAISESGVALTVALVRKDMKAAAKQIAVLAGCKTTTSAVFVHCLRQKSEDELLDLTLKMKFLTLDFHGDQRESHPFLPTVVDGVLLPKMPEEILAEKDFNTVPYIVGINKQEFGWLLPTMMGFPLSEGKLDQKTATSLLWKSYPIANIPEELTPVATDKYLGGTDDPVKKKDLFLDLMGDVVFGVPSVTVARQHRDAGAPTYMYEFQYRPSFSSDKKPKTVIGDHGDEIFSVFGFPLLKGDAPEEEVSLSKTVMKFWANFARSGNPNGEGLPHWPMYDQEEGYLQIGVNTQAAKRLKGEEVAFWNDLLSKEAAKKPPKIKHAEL

porcine liver PMPMEase = biological target: T2, porcine liver PMPMEase (Sus scrofa, UniProt Q29550); assay: PMPMEase inhibition assay of PMSF, GESF and FESF (IC50); format: biochemical; details: for increase in potency relative to PMSF: ratio of IC50 values vs PMSF
T2 construct: the supernatant fraction was prepared from 100 g of porcine liver; from tissue; host or cells: porcine liver 40,000×g supernatant
T2 sequence (Q29550 19-566): T1 sequence (Q29550 19-566)

[1] = Aqueous solubility (statement); format: physicochemical
liver PMPMEase = format: biochemical, porcine
brain PMPMEase = format: biochemical, porcine
[2] = 0.01 mM compound, 20 min preincubation at 37° C., HCFCM 1 mM
[3] = 1 mM compound, 20 min preincubation at 37° C., HCFCM 1 mM

## COC(=O)NS(=O)(=O)c1ccc(N)cc1 [Asulam]
Purified PMPMEase
  Residual activity (% of Control, SEM, n = 3) 0.01 mM: 113 ± 6.3 % of Control
  Residual activity (% of Control, SEM, n = 3) 1 mM: 91.7 ± 6.9 % of Control

## O=C(C(=O)c1ccccc1)c1ccccc1 [Benzil]
Purified PMPMEase
  Residual activity (% of Control, SEM, n = 3) 0.1 mM: *69.4 ± 0.24 % of Control
  Residual activity (% of Control, SEM, n = 3) 1 mM: 38.0 ± .43 % of Control

## NC(=O)OCc1ccccc1 [Benzyl carbamate]
Purified PMPMEase
  Residual activity (% of Control, SEM, n = 3) 0.01 mM: 117 ± 11 % of Control
  Residual activity (% of Control, SEM, n = 3) 1 mM: 124 ± 5 % of Control

## CCC(C)C(O)C(C)C(=O)C(C)/C=C(\C)CC(C)C1OC(=O)C1C (centres unmarked) [Ebelactone A]
Purified PMPMEase
  Residual activity (% of Control, SEM, n = 3) 0.01 mM: 123 ± 7 % of Control
  Residual activity (% of Control, SEM, n = 3) 1 mM: 18.3 ± 0.3 % of Control

## CCC(C)C(O)C(C)C(=O)C(C)/C=C(\C)CC(C)C1OC(=O)C1CC (centres unmarked) [Ebelactone B]
Purified PMPMEase
  Residual activity (% of Control, SEM, n = 3) 0.01 mM: 56.4 ± 1.0 % of Control
  Residual activity (% of Control, SEM, n = 3) 1 mM: 0 ± 0 % of Control

## CC(C)=CCC/C(C)=C/CC/C(C)=C/CSCCS(=O)(=O)F [FESF, S-trans,trans-farnesyl-2-thioethanesulfonyl fluoride]
Porcine liver PMPMEase
  IC50: 37 ± 0.42 nM
  increase in potency relative to PMSF: > 440 fold
[1]
  aqueous solubility: not aqueous-soluble

## CC(C)=CCC/C(C)=C/CSCCS(=O)(=O)F [GESF, S-trans-geranyl-2-thioethanesulfonyl fluoride]
Porcine liver PMPMEase
  IC50: 169 ± 6.8 nM
  increase in potency relative to PMSF: over 97 fold
[1]
  aqueous solubility: not aqueous-soluble

## CC(C)=CCC/C(C)=C/CC/C(C)=C/CC/C(C)=C/CS(=O)(=O)F [GGESF, S-geranylgeranyl sulfonyl fluoride]
Porcine liver PMPMEase; predicted vs FESF
  higher potency than FESF (concluded from the data, not tested): 2 fold

## CC(C)CC(N)C(=O)CCl [L-Leu chloromethyl ketone (CMK)]
Purified PMPMEase
  Residual activity (% of Control, SEM, n = 3) 0.01 mM: 93.3 ± 1.0 % of Control
  Residual activity (% of Control, SEM, n = 3) 1 mM: 60.4 ± 1.9 % of Control

## COC(=O)CCC(=O)N[C@@H](C)C(=O)N[C@@H](C)C(=O)N1CCC[C@H]1C(=O)N[C@H](C(=O)CCl)C(C)C [N- (methoxysuccinyl)-L- Ala-L-Ala-L-Pro-L- Val CMK] (MeOSuc-AAPV-CH2Cl)
Purified PMPMEase; [2]
  Residual activity (% of Control, SEM, n = 3) 0.01 mM: 105 ± 3.1 % of Control
Purified PMPMEase; [3]
  Residual activity (% of Control, SEM, n = 3) 1 mM: 61.8 ± 2.0 % of Control

## O=C(N[C@@H](Cc1ccccc1)C(=O)CCl)OCc1ccccc1 [N-carbobenzyloxy-L- Phe CMK]
Purified PMPMEase
  Residual activity (% of Control, SEM, n = 3) 0.01 mM: 94.8 ± 1.3 % of Control
  Residual activity (% of Control, SEM, n = 3) 1 mM: 57.0 ± 2.0 % of Control

## Cc1ccc(S(=O)(=O)N[C@@H](CCCCN)C(=O)CCl)cc1 [Nα-tosyl-L-Lys CMK]
Purified PMPMEase
  Residual activity (% of Control, SEM, n = 3) 0.01 mM: 98.3 ± 1.9 % of Control
  Residual activity (% of Control, SEM, n = 3) 1 mM: 98.6 ± 7.3 % of Control

## CCOP(=O)(OCC)Oc1ccc([N+](=O)[O-])cc1 [Paraoxon]
Liver PMPMEase
  Liver Mean (mean percent inhibition relative to the controls): 100%
Purified PMPMEase; [2]
  Residual activity (% of Control, SEM, n = 3) 0.01 mM: 0 ± 0 % of Control
Purified PMPMEase; [3]
  Residual activity (% of Control, SEM, n = 3) 1 mM: 0 ± 0 % of Control
Brain PMPMEase
  Brain Mean (mean percent inhibition relative to the controls): 87%

## O=S(=O)(F)Cc1ccccc1 [Phenylmethylsulfonyl fluoride, phenylmethylsulfonyl fluoride]
Purified PMPMEase; [2]
  Residual activity (% of Control, SEM, n = 3) 0.01 mM: 79.5 ± 1.8 % of Control
Purified PMPMEase; [3]
  Residual activity (% of Control, SEM, n = 3) 1 mM: 0 ± 0 % of Control

## Prothiofos
Liver PMPMEase
  Liver Mean (mean percent inhibition relative to the controls): 52%
Brain PMPMEase
  Brain Mean (mean percent inhibition relative to the controls): 6%

## Trichlorfon
Liver PMPMEase
  Liver Mean (mean percent inhibition relative to the controls): 91%
Brain PMPMEase
  Brain Mean (mean percent inhibition relative to the controls): 100%
